According to patent publication US7652038B2, “Methods of reducing angiogenesis” (The Board of Trustees of the Leland Stanford Jr. University, priority 2002, dated 2010):

How the values were obtained:
[1] = tested on: C57BL/6J mice; assay: Disc angiogenesis system; assay type: in vivo; conditions: for crosssectional area of the disc covered with new vessels (neovascularization of the disc): systemic treatment via osmotic minipumps, median, control 54.9%
Experimental: Disc Angiogenesis System. A disc of polyvinyl alcohol sponge (Rippey, El Dorado Hills, Calif.), covered with nitrocellulose cell-impermeable filters (Millipore, Burlington, Mass.), allows capillaries to grow only through the rim of the disc. The randomized treatment for the 2-week study period was delivered via osmotic minipumps (0.25 μl/hr; Durect, Cupertino, Calif.). Those discs were subcutaneously implanted in the back of 10-week old C57BL/6J mice or in some experiments in the back of α7-nAChR-deficient (B6.129S7-Chrna7^trn1Bay) mice (n=6 per group; Jackson, Bar Harbor, Me.). Two weeks later, mice were anesthetized and infused with space-filling fluorescent microspheres (0.2 μm, Molecular Probes, Eugene, Oreg.) through the left ventricle of the heart. Both the area of the disc covered with perfused vessels and the vessel density were quantified. Heeschen et al. (2001) Nat Med 7:833-837; and Jang et al. (2000) Circulation 102:1414-1419 (3, 10) The α7-nAChR in growing vessels were identified by immunohistochemistry (Santa Cruz Biotechnology, Santa Cruz, Calif.). To verify the specificity of the staining, discs explanted from homozygous α7-nAChR^−/− mice were used as a negative control.
To determine if the nAChR are involved in the native angiogenesic response in vivo, we used the disc angiogenesis system. In the control group, 54.9% (95% CI 46.1-63.6) of the crosssectional area of the disc was covered with new vessels when the disc was removed three weeks after subcutaneous implantation. FIG. 1.

[2] = tested on: C57BL/6J mice; assay: Murine model of hind limb ischemia; assay type: in vivo; conditions: for median diameter of collateral vessels / number of collateral vessels: ischemic limb; for median diameter of collateral vessels: control 0.12 mm; for number of collateral vessels: control 7.5
Experimental: Murine Model of Hind Limb Ischemia. In 10-week old C57BL/6J mice, the distal end of the external iliac artery and the deep and superficial femoral artery were ligated (n=8 animals per group). Mecamylamine was administered for three weeks by daily intramuscular injection. Serum VEGF levels were determined with a mouse VEGF ELISA kit (R&D System, Minneapolis, Minn.). Capillary density was determined in the adductor and semimembranous muscles. In 10 μm cryostat sections, cut transverse to the mid-belly of the muscle, capillaries were identified by monoclonal antibodies against CD31 (BD PharMingen, San Diego, Calif.) and myocytes were counterstained with eosin (Sigma). Capillary density for each section was determined in ten randomly selected fields and is expressed as a ratio of capillaries to myocytes.
To determine if nAChR play an important role in the setting of angiogenesis in response to ischemia, we employed the murine model of hind limb ischemia. After unilateral ligation of the superficial and deep femoral artery, we administered mecamylamine or vehicle by intramuscular injections into the ischemic hind limb on a daily basis for a period of three weeks. Animals (each group n=8) received 0, 0.05, or 0.5 μg/kg of mecamylamine. […] We achieved similar results when we administered mecamylamine systemically via osmotic minipumps (5.0 μg/kg; 0.24 (95% CI 0.19-0.28); P<0.001).
Accordingly, we identified collaterals by double staining for CD31 (ECs) and α-actin (SMCs) using confocal microscopy. The number of collaterals was quantified on cross-sections by identifying vascular lumen lined by CD31-positive endothelium, that were coated by an actin-positive vascular smooth muscle wall, with vessel diameters of at least 0.02 mm.

[3] = tested on: Lewis lung cancer cells; assay: Cell culture of Lewis lung cancer cells: proliferation and apoptosis during hypoxia; assay type: cell-based
Description: In subsequent cell culture experiments, we investigated whether this reduced tumor growth may also be related to a direct anti-proliferative effect of mecamylamine on the cancer cells. […] We also investigated the effects of increasing mecamylamine concentrations on the percentage of cells undergoing apoptosis during hypoxia using flow cytometry.

[4] = tested on: Lewis lung carcinoma cells; assay: Lewis lung tumor model, orthotopic implantation into lung parenchyma; assay type: in vivo, mice
Experimental: (§1) Lewis Lung Tumor Model. A total of 10^6 Lewis lung carcinoma cells (ATCC, Manassas, Va.) were cultured in RPMI 1640 supplemented with 10% FBS. Cancer cells were subcutaneously injected into each flank or orthotopically introduced into the lung parenchyma via a limited skin incision without thoracotomy of 10-week old C57BL/6J wild type mice. Animals received mecamylamine (3 mg/kg) or vehicle via osmotic mini pumps. Mice injected subcutaneously with tumor cells were checked on a daily basis for the presence of a palpable tumor and tumor growth was measured with a gauge. Tumor size was calculated as the product of length×width×0.5 cm^3. When mice in any group were bearing tumors>1.5 cm^3, the experiment was stopped and all animals sacrificed for histological evaluation. Tumor vessels were identified by infusion of space-filling fluorescent microspheres (0.2 μm; Molecular Probes) via the left ventricle of the heart.
(§2) The previous studies indicate that nAChR play an important role in angiogenesis in a broad spectrum of experimental conditions. To determine if mecamylamine could influence tumor angiogenesis, we used the in vivo Lewis lung cancer model. […] This late decrease in tumor growth in the mecamylamine group corresponded with a reduced vascularization of the tumor tissue. […] In another experiment, we orthotopically implanted Lewis lung cancer cells into the lung parenchyma. Larger tumors in the control group required discontinuation of the experiment after 17 days (tumor volume of 0.62 cm^3 (95% CI 0.37-0.85) versus 0.45 cm^3 (95% CI 0.28-0.66); P<0.001).

[5] = tested on: CD34+/Flk-1+ cells; assay: FACS of endothelial progenitor cells in hind limb ischemia model; assay type: in vivo, mice; conditions: systemic administration
Experimental: FACS. Fluorescence-activated cell sorting was used to identify the cellular population mobilized by ischemia and ischemia plus mecamylamine, respectively. At each time point (baseline, 3, 7, 14 days), blood was obtained from the right atrium. Bone marrow was isolated from bilateral femurs and tibias of each animal and incubated in HBSS (1% FCS) on ice. Peripheral blood and bone marrow cells were incubated with fluorescent-labeled antibodies and analyzed with a FACS-Vantage flow cytometer (Becton Dickinson, Franklin Lakes, N.J.). FITC-conjugated antibody against mouse CD34 and PE-conjugated antibody against mouse Flk-1 (BD PharMingen, San Diego, Calif.) were used as endothelial lineage markers. The analysis of CD34+ and Flk-1+ cells was performed after gating for monocyte size. Biotinylated antibodies against MAC-1 (BD PharMingen) conjugated to Avidin-Texas Red (BD PharMingen) were used as a monocyte/macrophage lineage marker after gating for monocyte cell size with the exclusion of granulocytes that were marked by Ly-6G GR-1 against mouse conjugated to APC (BD PharMingen). […] Data were analyzed using FloJo software (Becton Dickinson).
Table 1 presents the data, expressed as percentage of endothelial progenitor cells in bone marrow (BM) and peripheral blood (PB) before and after ligation of the femoral artery in the murine model of hind limb ischemia.

[6] = tested on: Lewis lung carcinoma cells; assay: Lewis lung tumor model, subcutaneous; assay type: in vivo, mice
Experimental: as §1, §2

[7] = tested on: HMVECs and HUVECs; assay: In vitro Matrigel assay (capillary network / tube formation); assay type: cell-based, human
Experimental: In Vitro Matrigel Assay. Human umbilical vein endothelial cells (HUVEC) and human microvascular endothelial cells (HMVEC; up to 5th passage; Bio Whittaker, Walkersville, Md.) were grown in EGM-MV supplemented with 5% FBS, 0.5 ml hEGF, 0.2 ml hydrocortisone, 2.0 ml BBE, and 0.5 ml GA-1000 (Bio Whittaker). Four-well chamber slides were coated with growth factor enhanced Matrigel (Becton Dickinson, Bedford, Mass.) and equilibrated with basal medium. Kureishi et al. (2000) Nat Med 6:1004-1010. Cells were seeded on top of the gel at a density of 10^3 cells/well in fresh basal medium containing 5% FBS. After two hours, increasing concentrations of mecamylamine (10^−12 to 10^−4 M; Sigma, St. Louis, Mont.) or vehicle were added to the medium. Development of tube formation in the center of each well was investigated at 24, 48, and 72 hours. We studied critical steps in angiogenesis, such as migration and differentiation, using an in vitro model of angiogenesis with ECs forming a network of capillary-like structures. After seeding the cells on growth factor-enriched matrigel, HMVECs and HUVECs, respectively, manifested tube formation within 48 hours in response to control medium.

CNC1(C)C2CCC(C2)C1(C)C (stereo not shown) [mecamylamine]
angiogenesis in vivo (FIG. 1) ([1]; disc angiogenesis system): inhibits angiogenesis in vivo
crosssectional area of the disc covered with new vessels (neovascularization of the disc) [1]: 14.3%
capillary density (angiogenic response) ([2]; 0.5 μg/kg daily intramuscular injection into ischemic hind limb, 3 weeks, control 0.45): 0.26 capillaries/myocyte
median diameter of collateral vessels ([2]; high dose): 0.07 mm
number of collateral vessels ([2]; high dose): 6.2
median diameter of collateral vessels ([2]; low dose): 0.09 mm
number of collateral vessels ([2]; low dose): 7.1
capillary density compared to control (FIG. 3) ([2]; murine model of hind limb ischemia): decreased capillary density in a dose-dependent fashion
capillary density (angiogenic response) ([2]; systemically via osmotic minipumps, 5.0 μg/kg): 0.24 capillaries/myocyte
cells positive for Annexin V ([3]; 10^−6 M during hypoxia, control 13%): 12%
percentage of cells undergoing apoptosis during hypoxia ([3]; increasing concentrations, flow cytometry, versus control group): no difference was observed
number of Lewis lung cancer cells (direct anti-proliferative effect) ([3]; up to 48 hours of treatment): did not observe a significant change
systemic levels of VEGF ([4]; Lewis lung cancer model, control 152.2): 78.7 pg/mL
tumor volume ([4]; orthotopic, after 17 days, control 0.62): 0.45 cm^3
tumor vascularization ([4]; orthotopic, control 1.56): 0.98 capillaries/mm^2
number of CD34+/Flk-1+ cells in the bone marrow [5]: reduced the number of CD34^+/Flk-1^+ cells in the bone marrow
tumor growth (tumor size) ([6]; 21-day follow-up, control 1.21): 0.85 cm^3
advanced tumor growth (FIG. 5) ([6]; Lewis Lung tumor model): significantly less tumor growth
capillary density of tumor tissue ([6]; subcutaneous tumor, control 0.82): 0.56 capillaries/mm^2
reversibility of effect on network formation ([7]; 10^−6 M, treatment stopped after 36 hours, network-like structures at 72 hours): reversible
network formation (tube formation) ([7]; medium supplemented with 10^−4 to 10^−12 M, growth factor-enriched matrigel): network formation was inhibited

C[N+](C)(C)CCCCCC[N+](C)(C)C [hexamethonium]
crosssectional area of the disc covered with new vessels (neovascularization of the disc) [1]: 11.5%
